The record followed here is publication PMC11354720, “Assessing the Efficacy of Protease Inactivation for the Preservation of Bioactive Amphibian Skin Peptides” (International Journal of Molecular Sciences, 2024).

The data set deals with proteases in Pelophylax esculentus skin secretion. It is filed as in vitro ADME. The conditions noted are these: for Proteoforms, %: sum of all proteolytic forms; for Proteoforms, % / Intact, % / Oxidized, %: LC-HRMS; for Intact, %: one frog per sample; for Efficiency of the reagent in deactivating proteases in amphibian skin secretions: comparison of HCl 1%, CH3OH, HCOOH 1%, PMSF 0.1 and 1.0 mM by preservation of nine intact peptides; for Oxidized, %: Met oxidized to methionine sulfoxide. The method, then: The inhibitory capacity of methanol and hydrochloric and formic acids, as well as PMSF at the minimum and maximum concentrations traditionally used in proteomics (0.1–1.0 mM), was compared via mass spectrometric monitoring of intact and proteolytic forms of nine peptides in five samples of Pelophylax esculentus secretions (samples 1–5).
Table 2 presents quantitative data for each of the nine peptides in Table 1, showing the percentage ratio of the intact (original) form of the peptide, the oxidized form (in the presence of methionine in the sequence), and the resulting proteolytic forms: products of the action of the remaining non-deactivated proteases. The full list of the detected proteolytic forms is included into the supporting material. The presence of one or another proteolytic form for each peptide in each of the five samples was determined by observing the coincidence of their exact experimental mass with the calculated one (within 0.5 ppm according to the mass spectra), as well as the coincidence of their sequences (tandem mass spectra data).
When calculating the data in Table 2, the total amount of intensities of all its formed forms in the mass spectra was taken as 100% for each peptide. To calculate the content in each of the samples of the intact, oxidized (if any), or proteolytic form of each of the nine peptides, the sum of the intensities of the chromatographic peaks of its multicharged ions, exactly corresponding to the values of the polyprotonated molecules of each of the forms, was used. The line “Proteoforms, %” took into account the sum of all proteolytic forms of a particular peptide for each of the five samples. The values of the intensities of each of the forms (intact, oxidized, and proteolytic) obtained in this way were summed up and, in relation to their resulting sum, the percentage content of each of the three forms in Table 2 was calculated for each of the five samples with different reagents.
The skin secretions of five sexually mature female specimens of the same size of Pelophylax esculentus, caught within the Moscow city limits, were obtained via mild electro-stimulation of the skin glands using a laboratory electro-stimulator [15, 51]. The “milking” parameters were as follows: signal frequency 50 Hz, pulse duration 3 ms, voltage 12 V, total stimulation time 40 s. The secretion was washed off with deionized water into separate containers, to which the following reagents were immediately added individually: —HCl to final concentration 1% (sample 1); —CH3OH (sample 2); —HCOOH to final concentration 1% (sample 3); —0.1 mM PMSF (sample 4 in DMSO); —1.0 mM PMSF (sample 5 in DMSO). All samples were centrifuged for 15 min at 3 000 rpm, filtered through removable membrane filters (PTFE 0.45 μm), and lyophilized. The storage temperature was −26 °C. All five individuals were immediately returned to their place of capture after the procedure.
Mass spectra were obtained on an Orbitrap ID-X high-resolution mass spectrometer (Thermo Scientific, Waltham, MA, USA) coupled to an LC-30 Nexera liquid chromatograph (Shimadzu, Kyoto, Japan) in LC-HRMS mode. An HPLC system consisted of two LC-30AD chromatographic pumps, a DGU-5A vacuum degasser, a SIL-30AC autosampler, an STO-20A column thermostat, and a CBM-20A system controller. The components of the secretions were separated on an XDB-C18 column (Agilent, Santa Clara, CA, USA) with a length of 100 mm and phase particle size of 1.8 μm. Gradient chromatography was performed using the following solutions: A—0.1% formic acid solution in deionized water (Milli-Q, Millipore, Molsheim, France); B—0.1% formic acid solution in acetonitrile containing 2% deionized water. All lyophilized samples were dissolved in phase B prior to the analysis. Injection volume was set to 0.1 µL. […]

Setting [1] is: sample 1: HCl final concentration 1%, all forms = 100%.
The mark [2] stands for this setting: sample 1: aqueous P. esculentus skin secretion, HCl added to final concentration 1%, sum of intensities of all forms of the peptide = 100%.
Setting [3] is: sample 2: CH3OH, all forms = 100%.
Where [4] appears, read: sample 2: aqueous P. esculentus skin secretion with CH3OH added, all forms = 100%.
Setting [5] is: sample 3: HCOOH final concentration 1%, all forms = 100%.
The mark [6] stands for this setting: sample 3: aqueous P. esculentus skin secretion, HCOOH added to final concentration 1%, all forms = 100%.
The mark [7] stands for this setting: sample 5: PMSF 1.0 mM (in DMSO), all forms = 100%.
Where [8] appears, read: sample 4: aqueous P. esculentus skin secretion, PMSF 0.1 mM (in DMSO), all forms = 100%.
[9] abbreviates: sample 5: aqueous P. esculentus skin secretion, PMSF 1.0 mM (in DMSO), all forms = 100%.
Where [10] appears, read: sample 4: PMSF 0.1 mM (in DMSO), all forms = 100%.

Like-named read-outs stand apart in the source and are kept apart here. Where a SMILES comes first, the peptide text is derived from it. Bridges are numbered along the chain shown (N, C = ends). Where no end group is shown, it is not given here.

Regarding “GXWNTXKATGKSA ASNVAVTLLDKAKCK(LV)GEC-OH (disulfide) [Brev 2La, Brevinin 2La, natural disulfide skin peptide of Pelophylax esculentus, brevinin 2 family, 33 aa]”, the “Proteoforms, %” value by setting is: under setting [1], 69.02%; under setting [3], “not observed at all”; under setting [5], 4.98%; under setting [7], “not observed at all”. Besides, the “Intact, %” value runs as follows: under setting [2], 30.98%; under setting [4], 100%; under setting [6], 95.02%.

With `CO` [Methanol, reference compound], the “Efficiency of the reagent in deactivating proteases in amphibian skin secretions” value is “most efficient”.

As to `CC[C@H](C)[C@H](NC(=O)[C@@H](N)C(C)C)C(=O)N1CCC[C@H]1C(=O)N[C@@H](Cc1ccccc1)C(=O)N[C@H](C(=O)N[C@@H](C)C(=O)N[C@@H](CO)C(=O)N[C@H](C(=O)N[C@@H](C)C(=O)N[C@@H](C)C(=O)N[C@@H](CCC(=O)O)C(=O)N[C@@H](CCSC)C(=O)N[C@@H](CCSC)C(=O)N[C@@H](CCC(N)=O)C(=O)N[C@@H](Cc1c[nH]cn1)C(=O)N[C@H](C(=O)N[C@@H](Cc1ccc(O)cc1)C(=O)N[C@H]1CSSC[C@@H](C(=O)O)NC(=O)[C@H](CCCNC(=N)N)NC(=O)[C@H](CCCNC(=N)N)NC(=O)[C@H](CO)NC(=O)[C@H](C)NC(=O)[C@H](C)NC1=O)C(C)C)C(C)C)C(C)C` [Brev 1Ra, Brevinin 1Ra] (H-VIPFVASVAAEMMQHVYCAASRRC-OH; disulfide 18-24), the “Proteoforms, %” value is listed as 0.75% under setting [1], 0.60% under setting [3], 0.30% under setting [5] and 0.53% under setting [7]. In addition, the “Intact, %” value by setting is: under setting [2], 93.51%; under setting [4], 98.27%; under setting [6], 99.51%; under setting [8], 77.80%; under setting [9], 99.47%.

On to “GIFSKLGRKKIKNLLISGLKNVGKEVGMDVVRTGIDIAGCKIKGEC (disulfide 40-46) [Escul 1, Esculentin 1]”, for which the “Proteoforms, %” value runs as follows: under setting [1], 51.77%; under setting [3], 20.01%; under setting [5], 16.99%; under setting [10], 94.40%; under setting [7], 91.90%. The “Intact, %” value reads like this: under setting [2], 38.61%; under setting [4], 79.99%; under setting [6], 72.22%; under setting [8], 3.32%; under setting [9], 8.10%.

Turning to “GXFSKXAGKKXKNLXISGXKSVGKEVGMDVVRTGIDIAGCKIKGEC-OH (disulfide) [Escul 1R, Esculentin 1R, natural disulfide skin peptide of Pelophylax esculentus, esculentin 1 family, 46 aa]”, the “Oxidized, %” value under setting [1] is reported as 7.45% and the “Oxidized, %” value under setting [10] turned out to be 0.25%. The “Proteoforms, %” value under setting [1] amounted to 27.69%; the “Proteoforms, %” value under setting [3] is on record as 22.15%; the “Proteoforms, %” value under setting [5] worked out at 15.59%; the “Proteoforms, %” value under setting [10] was 97.33%; the “Proteoforms, %” value under setting [7] was 99.26%. Moreover, the “Intact, %” value is, setting by setting: under setting [2], 64.86%; under setting [4], 77.85%; under setting [6], 84.41%; under setting [8], 2.42%; under setting [9], 0.74%.

In the case of “GXLDSLKNFAKDAAGILLKKASCKLSGQC-OH (disulfide) [Brev 2Ra, Brevinin 2Ra, natural disulfide skin peptide of Pelophylax esculentus, brevinin 2 family, 29 aa]”, the “Proteoforms, %” value is 1.02% under setting [1]; “did not degrade” under setting [3]; 1.30% under setting [5]; 88.21% under setting [10]; 14.01% under setting [7]. The “Intact, %” value is 98.98% under setting [2]; 100% under setting [4]; 98.70% under setting [6]; 11.80% under setting [8]; 85.99% under setting [9].

Consider “GXLSTLKNVAKTAGKGALQSLLNAASCKLSGQC-OH (disulfide) [Brev 2L, Brevinin 2L, natural disulfide skin peptide of Pelophylax esculentus, brevinin 2 family, 33 aa]”, for which the “Proteoforms, %” value under setting [1] came to 1.21%; the “Proteoforms, %” value under setting [3] came out at 4.66%; the “Proteoforms, %” value under setting [5] is 4.74%; the “Proteoforms, %” value under setting [10] came out at 99.64%; the “Proteoforms, %” value under setting [7] was found to be 80.51%. Besides, the “Intact, %” value is recorded as 98.79% under setting [2]; 95.34% under setting [4]; 95.26% under setting [6]; 0.36% under setting [8]; 19.49% under setting [9].

Consider “FFPAFLKVAAKVVPSXXCSITKKC-OH (disulfide) [Brev 1LE, Brevinin 1LE, natural disulfide skin peptide of Pelophylax esculentus, brevinin 1 family, 24 aa]”, for which the “Proteoforms, %” value was “not a single proteolytic fragment was formed” under setting [1]; “not a single proteolytic fragment was formed” under setting [3]; 1.63% under setting [5]; 92.73% under setting [10]; 89.74% under setting [7]. Also, the “Intact, %” value runs as follows: under setting [2], 100%; under setting [4], 100%; under setting [6], 98.37%; under setting [8], 7.27%; under setting [9], 10.26%.

As for `O=S(=O)(F)Cc1ccccc1` [PMSF, phenylmethylsulfonyl fluoride, reference compound], the “Efficiency of the reagent in deactivating proteases in amphibian skin secretions” value was “ineffective”.

In the case of “GXLDSLKNLAKNAAQILLNKASCKLSGQC-OH (disulfide) [Brev 2Rd, Brevinin 2Rd, natural disulfide skin peptide of Pelophylax esculentus, brevinin 2 family, 29 aa]”, the “Proteoforms, %” value by setting is: under setting [1], 0.39%; under setting [3], “did not degrade”; under setting [5], 2.23%; under setting [10], 98.45%; under setting [7], 79.16%. The “Intact, %” value is 99.61% under setting [2]; 100% under setting [4]; 97.77% under setting [6]; 1.55% under setting [8]; 20.84% under setting [9].
